Each block holds one molecule with its values, some of them ahead of it.
Key:
[1] = Half life in rat liver microsomes at 0.1 uM preincubated for 10 mins followed by NADPH addition and measured up to 60 mins by LC-MS/MS analysis; assay type: ADME, Microsome
[2] = Half life in human liver microsomes at 0.1 uM preincubated for 10 mins followed by NADPH addition and measured up to 60 mins by LC-MS/MS analysis; assay type: ADME, Microsome
[3] = Clearance in rat liver microsomes at 0.1 uM preincubated for 10 mins followed by NADPH addition and measured up to 60 mins by LC-MS/MS analysis; assay type: ADME, Microsome; conditions: 1 h
[4] = biological target: Histone acetyltransferase p300 (Homo sapiens, UniProt Q09472); assay: Inhibition of MSGRGK(Ac)-GGK(Ac)GLGK(Ac)GGAKRHR-biotin binding to EP300 (1040 to 1160 residues) (unknown origin) expressed in Escherichia coli BL21 (DE3) by Alphascreen assay
Chain of Histone acetyltransferase p300 (Q09472 whole entry, the tested form may be a part): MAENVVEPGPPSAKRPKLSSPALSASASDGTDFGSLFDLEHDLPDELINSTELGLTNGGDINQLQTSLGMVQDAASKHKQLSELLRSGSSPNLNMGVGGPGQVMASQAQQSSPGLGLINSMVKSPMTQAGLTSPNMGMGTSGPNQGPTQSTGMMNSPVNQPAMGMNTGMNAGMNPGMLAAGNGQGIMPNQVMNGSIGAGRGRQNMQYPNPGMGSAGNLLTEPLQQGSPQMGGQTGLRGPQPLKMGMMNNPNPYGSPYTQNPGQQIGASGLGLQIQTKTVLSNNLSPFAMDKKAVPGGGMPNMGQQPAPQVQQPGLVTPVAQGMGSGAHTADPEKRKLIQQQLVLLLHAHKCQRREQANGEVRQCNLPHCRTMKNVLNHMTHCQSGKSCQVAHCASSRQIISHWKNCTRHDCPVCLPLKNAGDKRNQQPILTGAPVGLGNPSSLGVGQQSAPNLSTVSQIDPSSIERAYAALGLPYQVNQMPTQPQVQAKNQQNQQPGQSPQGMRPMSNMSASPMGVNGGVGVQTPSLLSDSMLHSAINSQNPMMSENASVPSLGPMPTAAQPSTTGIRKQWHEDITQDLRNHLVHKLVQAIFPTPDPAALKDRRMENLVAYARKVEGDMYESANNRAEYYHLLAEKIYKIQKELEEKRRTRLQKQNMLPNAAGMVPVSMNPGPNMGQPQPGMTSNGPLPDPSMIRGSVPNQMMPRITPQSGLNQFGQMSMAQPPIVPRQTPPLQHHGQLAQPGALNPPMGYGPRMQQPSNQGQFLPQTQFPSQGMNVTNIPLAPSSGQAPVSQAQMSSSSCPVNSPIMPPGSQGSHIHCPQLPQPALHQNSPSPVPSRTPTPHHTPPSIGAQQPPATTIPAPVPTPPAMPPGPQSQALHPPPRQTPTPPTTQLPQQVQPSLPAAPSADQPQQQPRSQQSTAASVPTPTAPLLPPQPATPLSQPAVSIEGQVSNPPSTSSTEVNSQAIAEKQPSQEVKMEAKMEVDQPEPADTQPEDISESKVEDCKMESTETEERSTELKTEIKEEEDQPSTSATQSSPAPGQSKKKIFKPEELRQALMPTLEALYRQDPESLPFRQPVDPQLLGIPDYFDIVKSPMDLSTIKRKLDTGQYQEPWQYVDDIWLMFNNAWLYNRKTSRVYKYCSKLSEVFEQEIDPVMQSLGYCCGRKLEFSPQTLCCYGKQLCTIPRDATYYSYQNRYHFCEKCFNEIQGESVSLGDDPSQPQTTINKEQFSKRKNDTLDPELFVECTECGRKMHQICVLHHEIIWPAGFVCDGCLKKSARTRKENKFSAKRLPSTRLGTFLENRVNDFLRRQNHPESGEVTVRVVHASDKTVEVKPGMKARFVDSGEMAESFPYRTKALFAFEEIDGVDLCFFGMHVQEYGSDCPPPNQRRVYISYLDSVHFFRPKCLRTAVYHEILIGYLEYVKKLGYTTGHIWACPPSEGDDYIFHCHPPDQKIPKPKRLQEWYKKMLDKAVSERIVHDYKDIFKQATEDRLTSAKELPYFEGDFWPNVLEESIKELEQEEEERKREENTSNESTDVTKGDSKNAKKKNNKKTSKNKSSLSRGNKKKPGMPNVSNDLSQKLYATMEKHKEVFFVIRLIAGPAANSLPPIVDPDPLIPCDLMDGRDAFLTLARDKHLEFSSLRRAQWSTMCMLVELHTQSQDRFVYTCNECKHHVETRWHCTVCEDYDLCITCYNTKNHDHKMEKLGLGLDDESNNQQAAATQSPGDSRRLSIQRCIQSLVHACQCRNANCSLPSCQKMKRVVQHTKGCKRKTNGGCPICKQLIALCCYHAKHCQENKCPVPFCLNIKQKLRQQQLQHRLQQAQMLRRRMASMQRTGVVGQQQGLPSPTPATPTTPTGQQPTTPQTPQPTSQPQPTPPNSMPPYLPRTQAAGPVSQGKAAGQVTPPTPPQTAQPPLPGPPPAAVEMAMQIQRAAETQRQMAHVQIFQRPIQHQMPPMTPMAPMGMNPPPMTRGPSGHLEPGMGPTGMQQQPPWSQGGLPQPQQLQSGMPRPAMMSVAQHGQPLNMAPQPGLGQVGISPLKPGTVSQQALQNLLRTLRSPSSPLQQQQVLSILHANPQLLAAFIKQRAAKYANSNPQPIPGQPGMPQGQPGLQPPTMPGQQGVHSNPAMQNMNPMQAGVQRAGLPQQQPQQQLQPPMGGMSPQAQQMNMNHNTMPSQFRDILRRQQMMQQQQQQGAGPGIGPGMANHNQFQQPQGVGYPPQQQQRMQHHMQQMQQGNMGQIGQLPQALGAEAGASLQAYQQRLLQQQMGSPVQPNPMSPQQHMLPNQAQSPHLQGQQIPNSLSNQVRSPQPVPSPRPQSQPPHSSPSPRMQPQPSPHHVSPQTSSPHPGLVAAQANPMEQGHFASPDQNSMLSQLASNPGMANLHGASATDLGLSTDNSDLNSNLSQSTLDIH

[5] = Clearance in human liver microsomes at 0.1 uM preincubated for 10 mins followed by NADPH addition and measured up to 60 mins by LC-MS/MS analysis; assay type: ADME, Microsome; conditions: 1 h
MV4-11 = assay: Antiproliferative activity against human MV4-11 cells assessed as reduction in cell viability measured after 72 hrs by Celltitre-glo luminescence assay; assay type: functional, cell-based; conditions: MV4-11, 72 h
[6] = biological target: T1, Bromodomain-containing protein 4 (Homo sapiens, UniProt O60885)
Description: Binding affinity to N-terminal His6-tagged BRD4 bromodomain 1 (49 to 170 residues) (unknown origin) expressed in Escherichia coli BL21 (DE3) assessed as change in melting temperature at 1:100 molar ratio by SYPRO orange dye based fluorescence thermal shift assay

[7] = Clearance in mouse liver microsomes at 0.1 uM preincubated for 10 mins followed by NADPH addition and measured up to 60 mins by LC-MS/MS analysis; assay type: ADME, Microsome; conditions: 1 h
[8] = Half life in mouse liver microsomes at 0.1 uM preincubated for 10 mins followed by NADPH addition and measured up to 60 mins by LC-MS/MS analysis; assay type: ADME, Microsome
[9] = biological target: T1, Bromodomain-containing protein 4; assay: (§1) Inhibition of SGRG-K(Ac)-GG-K(Ac)-GLG-K(Ac)-GGA-K(Ac)-RHRKVGG-K-Biotin binding to N-terminal His6-tagged BRD4 bromodomain 1 (49 to 170 residues) (unknown origin) expressed in Escherichia coli BL21 (DE3) preincubated for 15 mins followed by biotin-labeled H4 peptide addition and measured after 10 mins by Alphascreen assay
[10] = biological target: T1, Bromodomain-containing protein 4; assay: as §1, with “2 (344” for “1 (49”, “455” for “170”
[11] = biological target: T1, Bromodomain-containing protein 4; assay: Inhibition of HSGRGK(Ac)GGK(Ac)GLGK(Ac)GGAK(Ac)RHRK(Biotin)-OH binding to recombinant human His6-tagged BRD4 bromodomain 1 expressed in Escherichia coli BL21 (DE3)-R3-pRARE2 cells preincubated for 30 mins followed by HSGRGK(Ac)GGK(Ac)GLGK(Ac)GGAK(Ac)RHRK(Biotin)-OH addition and measured after 30 mins by Alphascreen assay

SMILES: CC(=O)C[C@@H]1N=C(c2ccc(Cl)cc2)c2c(sc(C)c2C)-n2c(C)nnc21
IC50 [11]: 77 nM

SMILES: Cc1cc(-c2cc(S(=O)(=O)NC(C)(C)C)cnc2Oc2ccc(F)cc2F)n2cc[nH]c(=O)c12
IC50 [9]: 788 nM
IC50 [4]: > 100000 nM
ΔTm [6]: > 1 °C
IC50 [10]: 478 nM

SMILES: Cc1cc(-c2cc(S(=O)(=O)N(C)C)ccc2Oc2ccc(F)cc2F)n2cc[nH]c(=O)c12
IC50 [9]: 198 nM
IC50 [4]: > 100000 nM
ΔTm [6]: > 1 °C
IC50 [10]: 71.3 nM

SMILES: Cc1cc(-c2cc(S(=O)(=O)NC(C)(C)C)ccc2Oc2ccc(F)cc2F)n2cc[nH]c(=O)c12
IC50 [9]: 438 nM
IC50 [4]: > 100000 nM
ΔTm [6]: > 1 °C
IC50 [10]: 420 nM

SMILES: Cc1cc(-c2cc(NS(C)(=O)=O)ccc2Sc2ccccc2)n2cc[nH]c(=O)c12
IC50 [4]: > 100000 nM
ΔTm [6]: > 1 °C

SMILES: Cc1cc(-c2cc(S(C)(=O)=O)ccc2Oc2ccc(F)cc2F)n2cc[nH]c(=O)c12
IC50 [9]: 134 nM
IC50 [4]: > 33000 nM
ΔTm [6]: > 1 °C
IC50 [10]: 117 nM

SMILES: Cc1cc(Br)n2cc[nH]c(=O)c12
ΔTm [6]: 1.9 °C

SMILES: Cc1cc(-c2cc(NS(C)(=O)=O)ccc2Oc2ccccc2)n2ccn(C)c(=O)c12
IC50 [9]: > 2000 nM
ΔTm [6]: > 1 °C
IC50 [10]: > 2000 nM

SMILES: CC(=O)Nc1ccc(Oc2ccc(F)cc2F)c(-c2cc(C)c3c(=O)[nH]ccn23)c1
IC50 [9]: 219 nM
IC50 [4]: > 100000 nM
ΔTm [6]: > 1 °C
IC50 [10]: 97.9 nM

More lines, now with the values ahead:

half-life at 0.1 µM [1]: 18.8 min
half-life at 0.1 µM [2]: 18.2 min
Intrinsic clearance [3]: 112 mL/min/g
IC50 [4]: 16500 nM
Microsomal intrinsic clearance [5]: 115 mL/min/g
IC50 (MV4-11): 14.8 nM
ΔTm [6]: > 1 °C
Microsomal intrinsic clearance [7]: 380 mL/min/g
half-life at 0.1 µM [8]: 5.5 min
SMILES: Cc1cc(-c2cc(CS(C)(=O)=O)ccc2Oc2ccc(F)cc2F)n2cc[nH]c(=O)c12

IC50 [9]: > 1000 nM
IC50 [4]: 26900 nM
ΔTm [6]: > 1 °C
IC50 [10]: 669 nM
SMILES: Cc1cc(-c2cc(NS(C)(=O)=O)ccc2OCC(C)(C)C)n2cc[nH]c(=O)c12

half-life at 0.1 µM [1]: 6.4 min
half-life at 0.1 µM [2]: 58.1 min
Intrinsic clearance [3]: 327 mL/min/g
IC50 [4]: 17800 nM
Microsomal intrinsic clearance [5]: 36.2 mL/min/g
IC50 (MV4-11): 36.6 nM
ΔTm [6]: > 1 °C
Microsomal intrinsic clearance [7]: 141 mL/min/g
half-life at 0.1 µM [8]: 14.9 min
SMILES: Cc1cc(-c2cc(NS(C)(=O)=O)ccc2Oc2ccc(F)cc2F)n2cc[nH]c(=O)c12

IC50 [4]: > 33000 nM
IC50 (MV4-11): 387 nM
ΔTm [6]: > 1 °C
SMILES: Cc1cc(-c2cc(NS(C)(=O)=O)ccc2OC2CCOCC2)n2cc[nH]c(=O)c12

IC50 [9]: 128 nM
IC50 [4]: 57000 nM
IC50 (MV4-11): 118 nM
ΔTm [6]: > 1 °C
IC50 [10]: 178 nM
SMILES: Cc1cc(-c2cc(NS(C)(=O)=O)ccc2Oc2ccc(Cl)cc2)n2cc[nH]c(=O)c12

IC50 [4]: > 5000 nM
IC50 (MV4-11): 537 nM
ΔTm [6]: > 1 °C
SMILES: Cc1cc(-c2cc(NS(C)(=O)=O)cnc2Oc2ccc(F)cc2F)n2cc[nH]c(=O)c12

IC50 [9]: 27.3 nM
IC50 [4]: 12600 nM
IC50 (MV4-11): 211 nM
ΔTm [6]: > 1 °C
IC50 [10]: 25.9 nM
SMILES: Cc1cc(-c2cc(NS(C)(=O)=O)ccc2Oc2ccccn2)n2cc[nH]c(=O)c12

— ChEMBL document CHEMBL4402585 (J Med Chem, 2020)
